Reference: patent US9421211B2, “N,N′-diarylurea compounds and N,N′-diarylthiourea compounds as inhibitors of translation initiation” (President and Fellows of Harvard College, priority 2009, dated 2016)

Experiments:
[1] = In vivo toxicity, seven day administration to mice; conditions: seven consecutive days, up to 200 mg/kg
Procedure: Five female nude mice each were treated with 200 mg/kg, 100 mg/kg #1781 in 15 μl DMSO or 15 μl DMSO daily for seven days. Mice were observed daily for signs of toxicity and weighed every other day for total of 15 days and then necropsy was performed. The average body of each group is plotted against the time.
To study toxicity effects, mice were treated with various doses of compound #1781 or vehicle.

[2] = test system: eIF2.GTP.Met-tRNAi ternary complex; experiment: Ternary complex assay: dual luciferase F-luc/R-luc ratio in KLN-tTA/pBISA-DL(ATF-4) cells (HTS screen, 96-well hit confirmation, dose response); assay type: cell-based, mouse; conditions: siRNA to PKR, PERK, GCN2; also CRL-2813 cells
Text: For assay development, a bi-directional plasmid was designed in which a common promoter/enhancer complex drives the transcription of firefly luciferase (F-luc) ORF fused to the 5′ untranslated region (UTR) of ATF-4, and of the renilla luciferase (R-luc) ORF fused to a 90-nucleotide 5′ UTR derived from the plasmid (FIG. 6A). Because the tetracycline-regulated transactivator ((tTA), required for driving transcription from this vector) is not normally expressed in the mammalian cells, stable KLN cancer cells were constructed that expressed tTA (KLN-tTA).
The KLN-tTA colonies that drove expression of reporter genes from pBISA-DL plasmid were selected by transient transfection and dual luciferase assay. One of these KLN-tTA cell lines was transfected with the pBISA-DL^(ATF-4) expression vector, stable colonies were selected by dual luciferase assay and expanded. To determine if reduced availability of the eIF2.GTP.Met-tRNAi ternary complex increased the translation of firefly luciferase and decreased translation of renilla luciferase, selected KLN-tTA/pBISA-DL^(ATF-4) colonies were treated with thapsigargin (TG) or tunicamycin (TU), two agents known to cause phosphorylation of eIF2α.
This assay was then adapted for high throughput screening in 96 and 384 well plates. This was done by evaluating the cell density, length of exposure to compounds, DMSO tolerance and optimum firefly and renilla substrate. We then challenged these cells with thapsigargin or DMSO. […] Cell-based assays usually have higher variation than homogeneous in vitro assays due to position effect in the plate, and other variables associated with handling of cells and the plates.
Screening was conducted in 384 well white opaque plates (Nalge Nunc), 100 μl volume RPMI+10% fetal bovine serum. Cells were plated at the sub-confluent density of 10,000 cells/well, and allowed to attach for a period of 16-18 hours at 37° C., 5% CO2. Compounds were added as 1 μl of a 1 mM DMSO stock solution for a final screening concentration of […] using low-volume tips for transfer (Molecular Bioproducts). Cells were then incubated in the presence of compound for an additional sixteen hours, again at 37° C., 5% CO2. Following incubation 70 μl of the culture medium was removed from each well to allow for reagent addition and plates were allowed to equilibrate to room temperature for thirty minutes. Firefly luciferase reporter activity was then read by the addition of thirty microliters of Dual Glo Luciferase reagent (Promega), followed by one hour incubation at room temperature to allow for adequate signal buildup. Luminescence counting was conducted on a Microbeta Trilux using a 1 second read time. Renilla luciferase reporter activity was measured following addition of 30 μl Stop and Glo Luciferase reagent (Promega) and incubation identical to the one carried out for the firefly luciferase one.
Compound scores were interpreted as firefly luciferase activity divided by renilla luciferase activity, normalized to the plate's DMSO control. […] All data analysis was conducted using the BioAssay HTS software package (CambridgeSoft).
102,709 compounds in the NCI Open Chemical Repository were then screened using this HTS assay. […] Initial hits were confirmed by repeating the same dual luciferase assay in 96 well plates. Briefly, 20,000 cells/well were plated in triplicate for each concentration (10, 5 and 2.5 μM) of the compounds.

[3] = biological target: T1, HRI (Oryctolagus cuniculus, UniProt P33279); experiment: Phosphorylation of eIF2α in heme-supplemented rabbit reticulocyte lysate; assay type: biochemical; conditions: 30 minutes at 37° C.
T1 construct: from tissue; host or cells: rabbit reticulocyte lysate, heme supplemented
Procedure: (§1) FIGS. 14A and 14B depict that N,N′-diarylurea compounds activate HRI in cell free lysates. A and B) Heme supplemented rabbit reticulocyte (a) or in-house prepared human melanoma cancer cell lysates (b) were incubated with the indicated concentration of compound 1781 for 30 minutes at 37° C. and phosphorylation of eIF2α was determined by Western blot analysis.
(§2) Compound #1781 was added to lysates of CRL-2813 cells or heme-supplemented rabbit reticulocytes and phosphorylation of eIF2α by Western blot was determined.

[4] = test system: eIF2α; experiment: Phosphorylation of eIF2α in cells by Western blot (KLN-tTA/pBISA-DL(ATF-4), PC-3, CRL-2813); assay type: cell-based, mouse; human; conditions: CRL-2813, HRI siRNA
Text: The amount of the eIF2.GTP.Met-tRNAi complex can be reduced by phosphorylation of eIF2α, reduced expression of Met-tRNAi, or eIF2α phosphorylation independent reduction in the activity of eIF2B, the eIF2 guanine nucleotide exchange factor. To determine which of these was the case, the effect of active N,N′-diarylureas on the phosphorylation of eIF2α was studied. […] To determine if the phosphorylation of eIF2α was responsible for reduced amount of the ternary complex in the cells treated with N,N′-diarylurea compounds, previously generated PC-3 human prostate cancer cell lines in which expression of endogenous eIF2α was replaced with recombinant wild type (WT) or non-phosphorylatable eIF2α-S51A were utilized.
Western blotting: Cell extracts were separated by SDS-PAGE and probed with anti-phosphoserine-51-eIF2 cc (PS51-eIF2α), anti-total eIF2α-specific antibodies […] (Biosource International, Hopkinton, Mass.), anti-CHOP, or anti β-actin (Santa Cruz Biotechnology, CA) as described.

[5] = test system: CHOP mRNA; experiment: Endogenous CHOP mRNA by real-time PCR in KLN-tTA/pBISA-DL(ATF-4) cells; assay type: cell-based, mouse; conditions: siRNA to HRI, also CRL-2813 cells
Text: (§3) For example, reducing amount of the ternary complex increases translation of ATF-4, which results in elevated expression of CHOP mRNA and protein. Therefore, expression of endogenous CHOP mRNA and CHOP protein in KLN-tTA/pBISA-DL^(ATF-4) cells were utilized as secondary assays to validate N,N′-diarylurea compounds as modifiers of the eIF2.GTP.Met-tRNAi ternary complex. […] To rule out the possibility that the activity of N,N′-diarylurea compounds was confined to a single cell type, the effects of these compounds on the ternary complex assay and the expression of CHOP mRNA was assayed in CRL-2351, PC-3, CRL-2813 human breast, prostate, and melanoma cancer cell lines respectively. For the reporter gene assay, the three human cell lines were co-transfected with tTA expression vector and the pBISA-DL^(ATF-4) dual luciferase expression vector shown in FIG. 6. […] The expression of CHOP mRNA was assayed by real time PCR in the same cell lines treated with 5 or 20 μM of each compound.
Real time PCR: For real time PCR, total RNA was extracted with TaqMan Gene Expression Cells-to-Ct™ Kit (Applied Biosystems, Branchburg, N.J.) according to manufacturer's protocol. Contaminating DNA was removed by DNase I treatment. […] To calibrate the results, all the transcripts quantities were normalized to 18S rRNA (was 18S ribosomal RNA-like mRNA in mouse). […]

[6] = biological target: T2, HRI (Homo sapiens, UniProt Q9BQI3); experiment: Phosphorylation of eIF2α in CRL-2813 human melanoma cell lysate; assay type: biochemical; conditions: CRL-2813 cell lysate, 30 minutes at 37° C.
T2 construct: endogenous in cells; host or cells: CRL-2813 human melanoma cells (lysate prepared in house)
Procedure: as §1, §2

[7] = test system: CRL-2351 human breast cancer cells; experiment: Cell proliferation SRB assay, CRL-2351; assay type: cell-based; conditions: Homo sapiens; 2351 cells; read-out: IC50 (μM) by SRB assay, 2351
Procedure: (§4) Reduced availability of the ternary complex causes inhibition of translation initiation and thereby of cell proliferation. […] The effects of N,N′-diarylureas on the proliferation KLN mouse squamous cell carcinoma, CRL-2351 human breast, CRL-2813 human melanoma, A549 human lung and PC-3 human prostate cancer cell lines were tested.
(§5) Cell Growth Assay: Cell Growth was Measured by the SRB Assay.

[8] = test system: CRL-2813 human melanoma cells; experiment: Cell proliferation SRB assay, CRL-2813; assay type: cell-based; conditions: CRL2813, 2813 cells, read-out: IC50 (μM) by SRB assay, 2813
Procedure: as §4, with “tested. […]” for “tested.”
as §5

[9] = test system: KLN mouse squamous cell carcinoma cells; experiment: Cell proliferation SRB assay, KLN; assay type: cell-based; conditions: KLN cells, read-out: IC50 (μM) by SRB assay, KLN
Procedure: as §4, §5

[10] = Solubility observed at purification; assay type: physicochemical; conditions: solvents tried for purification
Procedure: Because it could not be purified, this compound was removed from the structure-activity relationship (SAR) study.
As another non-limiting example, 3,4-dichlorophenylisocyanate (250 mg, 1.330 mmol) and 2-amino-4-hydroxy-6-methylpyrimidine (166 mg, 1.330 mmol) were used following the general procedure E to synthesize 28.

[11] = test system: eIF2.GTP.Met-tRNAi ternary complex; experiment: ATF-4 assay (firefly/renilla luciferase ratio) in CRL-2351 cell line; assay type: cell-based, human
Text: as §3
Stable and transient transfection: Cells were seeded at the density of 10^5 in 60-mm (stable transfection) or 10^4 cells per well of 96-well plate (transient transfection) plates and transfected one day later using the Qiagen Transfectamine transfection kit. For selection of stable cell lines, transfected cells were transferred to 100-mm plates and selected with appropriate antibiotics.
Dual luciferase assay: Cells or minced tumors expressing firefly and renilla luciferases were lysed and the extracts assayed with a glow type dual luciferase assay kit, per manufacturer's instruction (Promega Inc., Madison, Wis.).

T1 sequence (P33279 whole entry): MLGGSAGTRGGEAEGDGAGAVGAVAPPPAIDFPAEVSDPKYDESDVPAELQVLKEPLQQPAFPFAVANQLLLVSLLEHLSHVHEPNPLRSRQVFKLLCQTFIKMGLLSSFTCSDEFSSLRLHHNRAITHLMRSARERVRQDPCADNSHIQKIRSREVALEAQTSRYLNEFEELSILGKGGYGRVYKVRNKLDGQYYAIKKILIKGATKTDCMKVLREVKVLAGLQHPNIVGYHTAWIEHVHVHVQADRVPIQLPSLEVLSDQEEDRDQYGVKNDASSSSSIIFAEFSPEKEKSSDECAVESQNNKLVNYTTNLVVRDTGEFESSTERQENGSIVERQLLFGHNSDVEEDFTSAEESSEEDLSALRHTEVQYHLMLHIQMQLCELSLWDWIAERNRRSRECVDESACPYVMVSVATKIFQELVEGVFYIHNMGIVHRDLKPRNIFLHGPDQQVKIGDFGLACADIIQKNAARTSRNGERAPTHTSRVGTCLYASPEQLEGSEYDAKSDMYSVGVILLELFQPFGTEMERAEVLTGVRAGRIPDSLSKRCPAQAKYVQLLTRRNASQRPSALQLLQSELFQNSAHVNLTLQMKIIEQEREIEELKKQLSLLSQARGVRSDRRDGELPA
T2 sequence (Q9BQI3 whole entry): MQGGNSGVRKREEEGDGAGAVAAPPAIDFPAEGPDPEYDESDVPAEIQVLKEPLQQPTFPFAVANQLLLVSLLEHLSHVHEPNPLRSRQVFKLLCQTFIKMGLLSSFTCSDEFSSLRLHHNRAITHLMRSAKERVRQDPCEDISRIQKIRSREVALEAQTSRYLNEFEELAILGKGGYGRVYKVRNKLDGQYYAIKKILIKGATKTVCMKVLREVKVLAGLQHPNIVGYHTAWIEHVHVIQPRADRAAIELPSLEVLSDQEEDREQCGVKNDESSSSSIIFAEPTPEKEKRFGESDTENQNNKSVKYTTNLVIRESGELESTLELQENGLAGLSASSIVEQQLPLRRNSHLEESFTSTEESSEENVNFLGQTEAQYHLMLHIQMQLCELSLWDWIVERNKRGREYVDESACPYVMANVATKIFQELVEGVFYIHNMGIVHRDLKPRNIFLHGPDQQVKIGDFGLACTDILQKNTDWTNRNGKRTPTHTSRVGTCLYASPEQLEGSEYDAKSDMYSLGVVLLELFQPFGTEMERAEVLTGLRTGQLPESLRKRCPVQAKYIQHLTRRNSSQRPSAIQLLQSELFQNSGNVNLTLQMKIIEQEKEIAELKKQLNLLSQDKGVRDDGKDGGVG

With `O=C(Nc1ccc(Cl)c(Cl)c1)Nc1ccc2nnsc2c1` [#1781] the “Effect on weight gain or food consumption of mice” value [1] was “no adverse effect”, the “Induction of F-luc/R-luc ratio by the compound after knocking down PKR, PERK or GCN2” value [2] was “no effect” and the “Phosphorylation of eIF2α in cell lysates” value [3] was “caused phosphorylation of eIF2α”. For the same compound, the “Induction of eIF2α phosphorylation by the compound after silencing of HRI” value [4] was “reduced”, the “Induction of CHOP mRNA by the compound after knocking down HRI” value [5] was “abrogated” and the “Phosphorylation of eIF2α in cell lysates” value [6] was “caused phosphorylation of eIF2α”.
`O=C(Nc1cc(C(F)(F)F)cc(C(F)(F)F)c1)Nc1ncccc1O` [Compound 28] showed an IC50 [7] of 0.7 µM, an IC50 [8] of 0.7 µM and an IC50 [9] of 15 µM. For the same compound, the Solubility [10] was “not soluble in any solvent”, the maximal fold induction ([11]; Homo sapiens, read-out: ATF-4 Amax: maximal activity, ratio of firefly over renilla luciferase expression) was 5 and the EC (activity threshold of 5) ([11]; Homo sapiens, read-out: ATF-4 C[5] (μM): concentration corresponding to an activity threshold of 5) was 40 µM. The Cmax ([11]; read-out: ATF-4 Cmax (μM): concentration corresponding to the maximal activity) was 40 µM.
